Measurements taken from US3968101A, “8-Substituted cyclic nucleotides by free radical alkylation and acylation” (ICN Pharmaceuticals, Inc., priority 1974, dated 1976).
Structures can show the parent of a compound that is named as a salt.

Experiments:
[1] = molecular target: cyclic nucleotide phosphodiesterase; assay: Inhibition of cAMP hydrolysis by beef heart cyclic nucleotide phosphodiesterase; assay type: biochemical; settings: beef heart enzyme; 50% inhibition of cleavage of cAMP, cAMP = 1.6 × 10^-7 M; read-out: Phosphodiesterase Inhibition, I50 Heart
Text: (§1) Homogenates of rabbit lung and beef heart are made in sucrose-Tris-magnesium buffer and are subjected to centrifugation at low speed to remove nuclei and cell debris. […] The precipitation which forms at 0-50% saturation is collected by centrifugation at 20,000 × g, dissolved in Tris-magnesium buffer, and dialyzed overnight against the same buffer.

[2] = molecular target: cyclic nucleotide phosphodiesterase; assay: Inhibition of cAMP hydrolysis by rabbit lung cyclic nucleotide phosphodiesterase; assay type: biochemical; settings: rabbit lung enzyme; 50% inhibition of cleavage of cAMP, cAMP = 1.6 × 10^-7 M; read-out: Phosphodiesterase Inhibition, I50 Lung
Text: as §1

[3] = system: cGMP-dependent protein kinase; assay: Activation of cGMP-dependent protein kinase isolated from lobster tail; assay type: biochemical; settings: for specificity between cGMP-dependent and cAMP-dependent protein kinase (in words): lobster tail cGMP-dependent versus bovine brain cAMP-dependent kinase; for ability to activate the cGMP-dependent protein kinase (in words): lobster tail kinase; for Protein Kinase, Ka ' Lobster: ratio of Ka of cGMP to Ka of test compound, lobster tail cGMP-dependent kinase
Text: The new 8-substituted purine cyclic nucleotides were examined for their ability to stimulate both a cAMP-dependent protein kinase isolated from beef brain and a cGMP-dependent protein kinase isolated from lobster tail (see Table II). […]. Acad. Sci. USA 64, 1349, Kuo et al, 1971, J. Biol. Chem. 246,7159) to be mediated by its activation of a protein kinase.
The Ka of cAMP for the cAMP-dependent protein kinase is about the same (see footnote a, Table II) as the Ka of cGMP for the cGMP-dependent protein kinase. Comparison of the Ka ' values (the ratio of Ka of the dependent cyclic nucleotide to the Ka of the test compound) is, therefore, an accurate guide to the type of kinase stimulation seen at a given cyclic nucleotide concentration.
a Ka ' = The ratio of Ka of the dependent cyclic nucleotide (cAMP for bovine brain and cGMP for lobster tail) to the Ka of the test compound. […]

[4] = system: cAMP-dependent protein kinase; assay: Activation of cAMP-dependent protein kinase isolated from beef brain; assay type: biochemical, bovine; settings: for activation of the cAMP-dependent protein kinase (in words): bovine brain kinase; for Protein Kinase, Ka ' Bovine: ratio of Ka of cAMP to Ka of test compound, bovine brain cAMP-dependent kinase
Text: The new 8-substituted purine cyclic nucleotides were examined for their ability to stimulate both a cAMP-dependent protein kinase isolated from beef brain and a cGMP-dependent protein kinase isolated from lobster tail (see Table II).
a Ka ' = The ratio of Ka of the dependent cyclic nucleotide (cAMP for bovine brain and cGMP for lobster tail) to the Ka of the test compound.

[5] = system: cyclic nucleotide phosphodiesterase; assay: Susceptibility to hydrolysis by rabbit kidney cyclic nucleotide phosphodiesterase; assay type: biochemical; settings: rabbit kidney enzyme preparation; times the rate of cAMP
Text: All compounds were examined for their susceptibility to hydrolysis by cyclic nucleotide phosphodiesterase. Both cGMP and cIMP were hydrolyzed at approximately one-half the rate of cAMP by a rabbit kidney enzyme preparation generally prepared in the manner described below for rabbit lung enzyme. The new 8-substituted derivatives were not substrates (rate of hydrolysis<0.05 that of the rate of cAMP hydrolysis) within the limits of detection of our assay, with the sole exception of 8-(1-hydroxybutyl)-cGMP (12), which was hydrolyzed at a rate 0.18 times the rate of hydrolysis of cAMP. This finding is in agreement with the general conclusion that 8-substitution of a purine 3',5'-cyclic ribonucleotide greatly reduces the ability of the resulting derivative to serve as a substrate for cyclic nucleotide phosphodiesterase.

Structure (SMILES) | IC50 [1] [µM] | IC50 [2] [µM] | ability to activate the cGMP-dependent protein kinase (in words) [3] | Protein Kinase, Ka ' Lobster [3] | activation of the cAMP-dependent protein kinase (in words) [4] | Protein Kinase, Ka ' Bovine [4] | rate of hydrolysis relative to the rate of cAMP hydrolysis [5] | specificity between cGMP-dependent and cAMP-dependent protein kinase (in words) [3]
CC(=O)c1nc2c(=O)[nH]cnc2n1[C@@H]1O[C@@H]2COP(=O)(O)O[C@H]2[C@H]1O [Compound 20, 8-Acetylinosine 3',5'-Cyclic Phosphate] | 1000 | 2000 | slight activation | 0.0041 | slight activation | 0.022 | – | slightly greater specificity for the cAMP-dependent enzyme
CC(=NNc1ccccc1)c1nc2c(=O)[nH]c(N)nc2n1[C@@H]1O[C@@H]2COP(=O)(O)O[C@H]2[C@H]1O [Compound 18, 8-Acetylguanosine 3',5'-Cyclic Phosphate Phenylhydrazone] | 100 | 2000 | – | 0.44 | – | < 0.005 | – | –
CC(O)c1nc2c(=O)[nH]c(N)nc2n1[C@@H]1O[C@@H]2COP(=O)(O)O[C@H]2[C@H]1O (some centres unmarked) [Compound 11, 8-(1-Hydroxyethyl)guanosine 3',5'-Cyclic Phosphate] | 170 | 400 | superior to cGMP | 1.8 | – | < 0.01 | – | –
Nc1nc2c(nc(Cc3ccccc3)n2[C@@H]2O[C@@H]3COP(=O)(O)O[C@H]3[C@H]2O)c(=O)[nH]1 [Compound 4, 8-Benzylguanosine 3',5'-Cyclic Phosphate] | 140 | 130 | – | 0.10 | – | < 0.001 | – | –
CC(=NNC(N)=O)c1nc2c(=O)[nH]c(N)nc2n1[C@@H]1O[C@@H]2COP(=O)(O)O[C@H]2[C@H]1O [Compound 16, 8-Acetylguanosine 3',5'-Cyclic Phosphate Semicarbazone] | 125 | 200 | – | 0.031 | – | < 0.005 | – | –
CC(=O)c1nc2c(=O)[nH]c(N)nc2n1[C@@H]1O[C@@H]2COP(=O)(O)O[C@H]2[C@H]1O [Compound 6, 8-Acetylguanosine 3',5' -Cyclic Phosphate] | 170 | 70 | – | 0.56 | – | < 0.001 | – | –
Nc1nc2c(nc(C(O)c3ccccc3)n2[C@@H]2O[C@@H]3COP(=O)(O)O[C@H]3[C@H]2O)c(=O)[nH]1 (stereo partly drawn) [Compound 14, 8-(α-Hydroxybenzyl)guanosine 3',5'-Cyclic Phosphate] | > 300 | 140 | superior to cGMP | 2.3 | – | < 0.005 | – | –
Cc1nc2c(=O)[nH]c(N)nc2n1[C@@H]1O[C@@H]2COP(=O)(O)O[C@H]2[C@H]1O [Compound 2, 8-Methylguanosine 3',5'-Cyclic Phosphate] | 200 | 400 | – | 0.066 | – | 0.015 | – | –
CC(C)c1nc2c(=O)[nH]c(N)nc2n1[C@@H]1O[C@@H]2COP(=O)(O)O[C@H]2[C@H]1O [Compound 3, 8-Isopropylguanosine 3',5'-Cyclic Phosphate] | 100 | 330 | – | 0.70 | – | < 0.001 | – | –
NC(=O)c1nc2c(=O)[nH]c(N)nc2n1[C@@H]1O[C@@H]2COP(=O)(O)O[C@H]2[C@H]1O [Compound 10, 8-Carbamoylguanosine 3',5'-Cyclic Phosphate] | 100 | 400 | superior to cGMP | 1.5 | – | < 0.001 | – | –
Cn1c(=O)c2[nH]cnc2n(C)c1=O [theophylline, reference compound] | 100 | 200 | – | – | – | – | – | –
CC(C)(C)Cc1nc2c(=O)[nH]c(N)nc2n1[C@@H]1O[C@@H]2COP(=O)(O)O[C@H]2[C@H]1O [Compound 5, 8-Neopentylguanosine 3',5'-Cyclic Phosphate] | 100 | 70 | – | 0.16 | – | < 0.001 | – | –
Nc1nc2c(ncn2[C@@H]2O[C@@H]3COP(=O)(O)O[C@H]3[C@H]2O)c(=O)[nH]1 [Compound 1, guanosine 3',5'-cyclic phosphate, reference compound] | – | – | – | 1.0 | – | 0.023 | approximately one-half | –

Now from value to molecule, other results behind:

IC50 [1] [µM] | IC50 [2] [µM] | ability to activate the cGMP-dependent protein kinase (in words) [3] | Protein Kinase, Ka ' Lobster [3] | activation of the cAMP-dependent protein kinase (in words) [4] | Protein Kinase, Ka ' Bovine [4] | rate of hydrolysis relative to the rate of cAMP hydrolysis [5] | Structure (SMILES) | specificity between cGMP-dependent and cAMP-dependent protein kinase (in words) [3]
50 | 26 | – | 0.052 | – | < 0.005 | – | CC(=NNC(N)=S)c1nc2c(=O)[nH]c(N)nc2n1[C@@H]1O[C@@H]2COP(=O)(O)O[C@H]2[C@H]1O [Compound 15, 8-Acetylguanosine 3',5'-Cyclic Phosphate Thiosemicarbazone] | –
90 | 70 | – | 0.20 | – | 0.064 | – | CCCC(=O)c1nc2c(=O)[nH]c(N)nc2n1[C@@H]1O[C@@H]2COP(=O)(O)O[C@H]2[C@H]1O [Compound 7, 8-Butyrylguanosine 3',,5' -cyclic phosphate] | –
70 | 400 | slight activation | 0.011 | slight activation | 0.070 | – | O=C(c1ccccc1)c1nc2c(=O)[nH]cnc2n1[C@@H]1O[C@@H]2COP(=O)(O)O[C@H]2[C@H]1O [Compound 21, 8-Benzoylinosine 3',5'-Cyclic Phosphate] | slightly greater specificity for the cAMP-dependent enzyme
50 | – | – | 0.68 | – | < 0.005 | – | Nc1nc2c(nc(C(=O)c3ccccc3)n2[C@@H]2O[C@@H]3COP(=O)(O)O[C@H]3[C@H]2O)c(=O)[nH]1 [Compound 9, 8-Benzoylguanosine 3',5'-cyclic phosphate] | –
29 | 133 | – | 0.62 | – | < 0.001 | 0.18 | CCCC(O)c1nc2c(=O)[nH]c(N)nc2n1[C@@H]1O[C@@H]2COP(=O)(O)O[C@H]2[C@H]1O (some centres unmarked) [Compound 12, 8-(1-Hydroxybutyl)guanosine 3',5'-Cyclic Phosphate] | –
38 | 180 | – | 0.72 | – | < 0.001 | – | CC(C)C(O)c1nc2c(=O)[nH]c(N)nc2n1[C@@H]1O[C@@H]2COP(=O)(O)O[C@H]2[C@H]1O (some centres unmarked) [Compound 13, 8-(1-Hydroxy-2-methylpropyl)guanosine 3',5'-Cyclic Phosphate] | –
11 | – | – | 0.13 | – | < 0.01 | – | CC(C)C(=O)c1nc2c(=O)[nH]c(N)nc2n1[C@@H]1O[C@@H]2COP(=O)(O)O[C@H]2[C@H]1O [Compound 8, 8-Isobutyrylguanosine 3',5'-Cyclic Phosphate Ammonium Salt] | –
3.9 | 100 | – | 0.085 | – | 0.59 | approximately one-half | O=c1[nH]cnc2c1ncn2[C@@H]1O[C@@H]2COP(=O)(O)O[C@H]2[C@H]1O [Compound 19, Inosine 3',5'-cyclic phosphate, reference compound] | greater activation of the cAMP-dependent kinase
40 | 150 | – | 0.11 | – | < 0.01 | – | CC(=NNC(=O)Nc1ccccc1)c1nc2c(=O)[nH]c(N)nc2n1[C@@H]1O[C@@H]2COP(=O)(O)O[C@H]2[C@H]1O [Compound 17, 8-Acetylguanosine 3',5'-Cyclic Phosphate 4-Phenylsemicarbazone] | –
